Results published in ChEMBL document CHEMBL1201862, “PubChem BioAssay data set” (2004).
The source made the active and inactive calls.

Columns and labels:
[1] = tested on: Vero; assay: cells; format: functional, cell-based; details: Chlorocebus sabaeus
[2] = tested on: Vero; assay: cells; format: functional; details: Chlorocebus sabaeus
[3] = molecular target: T1, Carboxy-terminal domain RNA polymerase II polypeptide A small phosphatase 1 (Homo sapiens, UniProt Q9GZU7); assay: CTDSP1 inhibitors, concentration-response, biochemical, absorbance readout, ultra-high-throughput screen actives (AID 540297); format: functional
T1 sequence (Q9GZU7 whole entry): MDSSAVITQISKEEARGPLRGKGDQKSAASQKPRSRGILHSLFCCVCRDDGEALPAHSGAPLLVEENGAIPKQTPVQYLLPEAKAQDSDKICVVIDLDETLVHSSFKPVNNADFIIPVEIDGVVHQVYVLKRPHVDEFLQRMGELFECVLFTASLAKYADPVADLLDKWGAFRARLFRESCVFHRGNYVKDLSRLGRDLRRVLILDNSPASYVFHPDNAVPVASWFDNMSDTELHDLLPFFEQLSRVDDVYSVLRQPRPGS

[4] = molecular target: T2, Protein skinhead-1 (Caenorhabditis elegans, UniProt P34707); format: functional
T2 sequence (P34707 whole entry): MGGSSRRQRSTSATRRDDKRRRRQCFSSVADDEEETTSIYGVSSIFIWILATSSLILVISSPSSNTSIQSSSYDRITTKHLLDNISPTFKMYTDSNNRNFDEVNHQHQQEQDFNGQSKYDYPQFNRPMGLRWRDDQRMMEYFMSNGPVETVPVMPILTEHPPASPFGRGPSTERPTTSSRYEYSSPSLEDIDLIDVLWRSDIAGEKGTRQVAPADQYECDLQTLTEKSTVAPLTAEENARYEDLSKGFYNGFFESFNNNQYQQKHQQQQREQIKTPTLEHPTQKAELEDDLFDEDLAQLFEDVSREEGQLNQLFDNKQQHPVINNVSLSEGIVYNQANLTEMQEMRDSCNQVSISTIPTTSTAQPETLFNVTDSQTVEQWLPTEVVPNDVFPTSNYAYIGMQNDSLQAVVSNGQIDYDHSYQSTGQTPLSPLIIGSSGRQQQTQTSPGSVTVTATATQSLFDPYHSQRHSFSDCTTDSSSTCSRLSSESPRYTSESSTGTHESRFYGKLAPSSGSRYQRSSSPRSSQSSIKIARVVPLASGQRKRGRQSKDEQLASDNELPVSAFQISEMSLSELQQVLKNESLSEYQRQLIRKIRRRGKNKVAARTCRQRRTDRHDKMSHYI

[5] = molecular target: DNA dC->dU-editing enzyme APOBEC-3A (Homo sapiens, UniProt P31941); assay: Dose Response confirmation of small molecule APOBEC3A DNA Deaminase Inhibitors via a fluorescence-based single-stranded DNA deaminase assay. [Related pubchem assays (depositor defined):AID493011, AID493024]; format: functional
[6] = molecular target: DNA dC->dU-editing enzyme APOBEC-3G (Homo sapiens, UniProt Q9HC16); format: functional;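 also: Dose-response counterscreen measuring inhibition of APOBEC3G DNA deaminase activity, run while confirming APOBEC3A inhibitors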
[7] = molecular target: T3, Exodeoxyribonuclease V (Escherichia coli (strain K12), UniProt P04993+P07648+P08394); assay: RecBCD inhibition via phage-restricted bacterial growth – absorbance, V66 E. coli, mutant T4 phage, counter-screen for AddAB inhibitor project, dose response (AID 492957); format: functional, cell-based, Escherichia coli str. K-12 substr. MG1655
T3 sequence (P04993 whole entry): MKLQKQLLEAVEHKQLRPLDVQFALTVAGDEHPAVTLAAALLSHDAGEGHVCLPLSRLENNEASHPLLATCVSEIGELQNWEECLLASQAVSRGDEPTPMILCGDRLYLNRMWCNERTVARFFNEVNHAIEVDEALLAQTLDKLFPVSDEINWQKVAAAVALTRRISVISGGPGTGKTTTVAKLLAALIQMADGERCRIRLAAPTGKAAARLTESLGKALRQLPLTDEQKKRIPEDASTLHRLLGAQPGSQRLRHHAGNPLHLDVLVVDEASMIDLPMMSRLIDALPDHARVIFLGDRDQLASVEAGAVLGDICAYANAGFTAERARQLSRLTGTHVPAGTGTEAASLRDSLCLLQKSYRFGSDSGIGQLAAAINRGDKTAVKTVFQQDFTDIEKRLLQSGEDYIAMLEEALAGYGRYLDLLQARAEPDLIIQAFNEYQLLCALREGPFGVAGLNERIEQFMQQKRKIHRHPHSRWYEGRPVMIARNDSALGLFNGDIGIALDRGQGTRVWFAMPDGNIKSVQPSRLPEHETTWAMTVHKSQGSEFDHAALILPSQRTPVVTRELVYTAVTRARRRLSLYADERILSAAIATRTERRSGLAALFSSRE
T3 sequence (P07648 whole entry): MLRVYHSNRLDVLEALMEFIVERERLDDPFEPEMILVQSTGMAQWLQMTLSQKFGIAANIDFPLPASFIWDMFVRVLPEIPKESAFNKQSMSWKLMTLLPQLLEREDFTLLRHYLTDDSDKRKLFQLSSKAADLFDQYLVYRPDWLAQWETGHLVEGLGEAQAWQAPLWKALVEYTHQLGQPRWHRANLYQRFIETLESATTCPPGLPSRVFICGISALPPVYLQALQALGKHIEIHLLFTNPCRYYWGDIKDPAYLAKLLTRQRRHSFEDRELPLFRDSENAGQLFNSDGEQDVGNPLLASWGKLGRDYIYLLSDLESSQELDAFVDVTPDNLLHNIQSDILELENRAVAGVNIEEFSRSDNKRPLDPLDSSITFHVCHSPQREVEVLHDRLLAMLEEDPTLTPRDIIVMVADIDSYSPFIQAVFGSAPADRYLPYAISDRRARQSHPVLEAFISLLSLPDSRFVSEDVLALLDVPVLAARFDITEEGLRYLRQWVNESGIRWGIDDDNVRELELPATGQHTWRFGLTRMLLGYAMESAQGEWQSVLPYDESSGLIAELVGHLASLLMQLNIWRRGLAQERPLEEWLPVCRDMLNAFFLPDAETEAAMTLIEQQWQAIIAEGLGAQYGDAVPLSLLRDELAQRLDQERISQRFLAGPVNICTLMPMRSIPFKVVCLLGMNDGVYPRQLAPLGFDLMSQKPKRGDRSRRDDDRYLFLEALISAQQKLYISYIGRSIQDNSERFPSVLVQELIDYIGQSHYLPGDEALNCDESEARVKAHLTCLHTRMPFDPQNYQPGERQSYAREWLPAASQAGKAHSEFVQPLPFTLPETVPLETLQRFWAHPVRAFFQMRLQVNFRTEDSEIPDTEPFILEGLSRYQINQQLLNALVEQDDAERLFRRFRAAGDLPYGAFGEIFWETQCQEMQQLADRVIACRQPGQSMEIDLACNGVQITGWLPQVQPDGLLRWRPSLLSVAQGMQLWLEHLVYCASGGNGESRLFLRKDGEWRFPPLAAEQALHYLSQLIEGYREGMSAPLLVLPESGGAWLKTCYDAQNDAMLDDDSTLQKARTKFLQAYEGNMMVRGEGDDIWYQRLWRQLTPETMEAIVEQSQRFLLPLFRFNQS
T3 sequence (P08394 whole entry): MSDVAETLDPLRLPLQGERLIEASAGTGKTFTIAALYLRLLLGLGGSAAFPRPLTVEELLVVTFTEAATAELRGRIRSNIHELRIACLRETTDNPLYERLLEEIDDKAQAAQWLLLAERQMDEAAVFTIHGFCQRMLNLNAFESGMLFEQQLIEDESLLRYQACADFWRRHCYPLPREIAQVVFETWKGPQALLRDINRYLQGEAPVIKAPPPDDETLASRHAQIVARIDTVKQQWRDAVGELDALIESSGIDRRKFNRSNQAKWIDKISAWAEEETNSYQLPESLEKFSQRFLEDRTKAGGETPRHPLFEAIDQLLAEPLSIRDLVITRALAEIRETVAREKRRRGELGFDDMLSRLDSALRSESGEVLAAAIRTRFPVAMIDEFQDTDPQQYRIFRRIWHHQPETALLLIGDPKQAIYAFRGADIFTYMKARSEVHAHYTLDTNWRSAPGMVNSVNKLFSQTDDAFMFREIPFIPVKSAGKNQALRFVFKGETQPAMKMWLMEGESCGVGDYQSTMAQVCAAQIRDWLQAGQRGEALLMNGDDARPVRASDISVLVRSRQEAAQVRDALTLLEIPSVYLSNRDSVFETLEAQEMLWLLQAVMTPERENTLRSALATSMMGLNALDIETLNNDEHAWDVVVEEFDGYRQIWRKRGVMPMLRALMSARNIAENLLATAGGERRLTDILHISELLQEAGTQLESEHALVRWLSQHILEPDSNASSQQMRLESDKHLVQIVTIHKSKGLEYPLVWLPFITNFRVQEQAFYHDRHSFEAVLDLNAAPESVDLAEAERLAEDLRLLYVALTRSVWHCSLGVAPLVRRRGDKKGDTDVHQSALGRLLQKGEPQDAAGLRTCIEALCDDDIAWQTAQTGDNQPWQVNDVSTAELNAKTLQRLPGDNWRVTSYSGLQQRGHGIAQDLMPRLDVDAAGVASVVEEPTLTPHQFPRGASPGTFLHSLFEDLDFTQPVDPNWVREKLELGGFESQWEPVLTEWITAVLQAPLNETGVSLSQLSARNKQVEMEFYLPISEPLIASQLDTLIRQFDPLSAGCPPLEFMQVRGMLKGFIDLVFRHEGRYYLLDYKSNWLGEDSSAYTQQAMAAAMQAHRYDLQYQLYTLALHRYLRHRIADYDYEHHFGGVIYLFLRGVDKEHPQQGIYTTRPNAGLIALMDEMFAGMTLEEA

[8] = Counterscreen for AddAB inhibitors: absorbance-based bacterial cell-based high throughput dose response assay for inhibitors of bacterial viability. [Related pubchem assays (depositor defined):AID435030, AID449728, AID449731, AID488942, AID488955, AID488956]; format: functional
[9] = tested on: BJ; assay: BJ-TERT fibroblast viability loss – cell-based, RAS-independent, luminescence, dose response (AID 1933); format: functional; details: Homo sapiens
[10] = cells; format: functional, cell-based
[11] = tested on: BJ; assay: cells; format: functional, cell-based; details: Homo sapiens
[12] = cells; format: functional, cell-based; remark: listed apart in the source
[13] = tested on: BJ; assay: BJ-TERT-LT-ST fibroblast viability loss – cell-based, RAS-independent, luminescence, dose response (AID 1935); format: functional; details: Homo sapiens;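 also: BJ fibroblasts immortalized with TERT plus LT and ST oncogenes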
[14] = DRD fibroblast viability loss – cell-based, non-viral oncogenic, luminescence, dose response (AID 1934); format: functional; details: Homo sapiens
[15] = tested on: BJ; assay: growth inhibition of engineered Ras-driven BJ cells – cell-based, alamar blue fluorescence, cherrypicked samples, dose response (AID 2631); format: functional; details: Homo sapiens;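 also: confirmatory dose-response assay in RAS-dependent BJ fibroblasts engineered with TERT, LT and ST, with cytotoxicity read by fluorescence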
[16] = tested on: INS1; assay: INS-1E survival protection against cytokine death – cell-based, luminescence, retest, dose response (AID 449756); format: functional; details: Rattus norvegicus;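 also: cell death triggered by IL-1 beta plus TNF-alpha plus IFN-gamma mixture; protective hits raise ATP signal compared with cytokine alone wells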

DNA dC->dU-editing enzyme APOBEC-3G, sequence (Q9HC16 whole entry): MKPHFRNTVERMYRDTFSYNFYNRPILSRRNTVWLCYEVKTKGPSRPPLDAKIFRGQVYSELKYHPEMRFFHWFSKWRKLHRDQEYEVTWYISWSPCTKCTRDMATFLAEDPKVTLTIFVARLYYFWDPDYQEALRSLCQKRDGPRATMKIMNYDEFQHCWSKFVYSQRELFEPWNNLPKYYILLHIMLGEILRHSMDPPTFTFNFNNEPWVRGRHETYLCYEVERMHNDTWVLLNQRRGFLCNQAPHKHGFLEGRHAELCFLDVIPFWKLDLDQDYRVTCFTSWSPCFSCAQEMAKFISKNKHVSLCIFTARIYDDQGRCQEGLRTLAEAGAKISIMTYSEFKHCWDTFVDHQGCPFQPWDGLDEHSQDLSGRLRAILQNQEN
DNA dC->dU-editing enzyme APOBEC-3A, sequence (P31941 whole entry): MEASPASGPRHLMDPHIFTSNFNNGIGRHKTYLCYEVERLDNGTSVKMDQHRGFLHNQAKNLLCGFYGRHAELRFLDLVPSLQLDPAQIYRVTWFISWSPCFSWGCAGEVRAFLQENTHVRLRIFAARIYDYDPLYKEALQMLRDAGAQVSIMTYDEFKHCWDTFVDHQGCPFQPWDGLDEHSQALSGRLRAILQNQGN

For `Cn1cc(CN2CCCC(C(=O)Nc3ccc(-c4cccc(F)c4)cc3)C2)cn1` (stereo unspecified), the IC50 [1] was 22.6 µM (active) and the CC50 [2] was 22.3 µM (active).
With `Cc1ccn2c(=O)nc(SCC(=O)NCc3ccccc3Cl)nc2c1` the IC50 [3] was 8.34 µM (active).
In the case of `CN1CCN(CCCN2c3ccccc3Sc3ccc(S(=O)(=O)N(C)C)cc32)CC1`, the IC50 [1] is reported as > 25 µM (active) and the CC50 [2] is reported as > 25 µM (active).
With `COc1ccc(C(=O)/C=C/c2ccc(OC)c(CN3CCOCC3)c2)cc1` the IC50 [1] was 9.3 µM (active), the CC50 [2] was 22.6 µM (active) and the IC50 [4] was 6.86 µM (active).
For `CN(C)CCCN(C(=O)c1ccc2c(c1)OCCO2)c1nc2ccc(Cl)cc2s1`, the IC50 [1] was > 25 µM (active) and the CC50 [2] was > 25 µM (active).
For `CC(c1ccccc1)C1OCC(C[N+]2(C)CCCCC2)O1` (stereo unspecified), the IC50 [5] was 2.81 µM (active), the IC50 [6] was 2.72 µM (active) and the IC50 [3] was 2.75 µM (active).
In the case of `Cc1c(C(=O)O)cccc1-c1ccc(/C=N/n2cnnc2)o1`, the IC50 [3] is reported as 6.52 µM (active).
In the case of `C/C(=N\NC1=NC(=O)C(CC(=O)O)S1)c1ccccn1` (stereo unspecified), the IC50 [7] is reported as 73.3 µM (inactive) and the IC50 [8] is reported as > 118 µM (inactive).
In the case of `C/C(=N\Nc1ccc2nncn2n1)c1ccccn1`, the EC50 [9] is reported as 16 µM (active), the EC50 [10] is reported as 6.99 µM (active) and the EC50 [11] is reported as 4.29 µM (active). The EC50 [12] was > 350 µM (not active), the EC50 [13] was 8.41 µM (inconclusive) and the EC50 [14] was 4.95 µM (active). For the same compound, the IC50 [7] was 57.1 µM (inactive), the IC50 [8] was 114 µM (inactive) and the EC50 [15] was 0.912 µM (active). The AC50 [16] was 0.898 µM (active).
